# Assay results taken from US20080268533A1, “Methods and Compositions Utilizing Myc and Gsk3Beta to Manipulate the Pluripotency of Embryonic Stem Cells” (University of Georgia Research Foundation, Inc., priority 2004, published 2008).
# Assays:
# [1] = tested on: myc^T58AER cells; details: 4OHT (−LIF) versus LIF maintained cells, 14-day period
# Experimental: For long-term maintenance, mycER and myc^T58AER mouse ES cells were grown in ES complete media supplemented with 4-hydroxytomoxifen (4OHT) (100 nM or 2-10 nM, respectively) and re-fed every second day. For differentiation of ES cells as embryoid bodies (EB), cells were trypsinized and replated on bacteriological dishes at 1.6×10^5 cells/cm^2 and grown in ESC media (−LIF) plus or minus 4OHT to allow for EB formation. Cells were re-fed every second day and expanded after 4 days of culture. mycER cells were passaged by limited trypsinization, avoiding generation of single cell suspensions. AP activity was assayed with Alkaline Phosphatase Substrate Kit I (Vector Laboratories) according to the manufacturers' instructions. LIF titration assays were performed over a range of 0 to 1×10^3 units ESGRO per ml in the presence or absence of 4OHT by plating cells in 24 well plates.
# [2] = tested on: mycER ES cells; assay: AP activity of mycER ES cells with 4OHT; type: cell-based, mouse
# Experimental: In the presence of 4OHT (mycER on), ES cells retained a uniform dome-shaped colony morphology (FIG. 1B), similar to that of LIF maintained cells (data not shown). In contrast, withdrawal of 4OHT promoted a distinct flattening of colonies with a less uniform appearance (FIG. 1C) that correlated with ES cells undergoing differentiation in the absence of LIF (data not shown). The ability of c-myc to promote ES cell self-renewal was confirmed in a LIF titration assay where mycER ES cells were grown in the presence or absence of 4OHT for 6 days in media containing LIF over a range of 0-1×10^3 units per ml and then assayed for AP activity. […] MycER cells were then grown in the presence or absence of 4OHT in the absence of LIF for up to 15 days and assayed for AP activity. […] Including low levels of LIF (7.5 units/ml), that by itself had only a small effect on maintaining AP levels over 15 days, appeared to further delay the loss of AP activity in mycER cells grown with 4OHT.
# [3] = tested on: vector alone cell lines; assay: Self-renewal of vector alone ES cell lines with 4OHT; type: cell-based, mouse; details: absence of LIF
# Source text: Furthermore, authentic c-myc could maintain self-renewal in a similar manner to mycER fusions when expressed constitutively, independently of 4OHT (data not shown).
# [4] = tested on: hES BG01 cell lines transfected with c-myc^T58AER; type: cell-based
# Experimental: To address this question in hESCs, clonal hES BG01 cell lines transfected with a human c-myc^T58AER gene fusion were generated, identical to that used in the previous mESC studies.
# To establish a role for c-myc in HESC self-renewal, c-myc activity was enforced by the addition of 4OHT. This experiment was performed to determine whether c-myc could maintain normal HESC growth and morphology on Matrigel for a period of approximately 15 days (3 passages) in the absence of MEF-CM and bFGF, conditions where spontaneous differentiation would be anticipated. Uninduced (−40HT) cells overtly differentiated after approximately 5-6 days in a manner closely resembling untransfected hESCs when grown in the absence of MEF-CM and bFGF on Matrigel, as judged by changes in cell/colony morphology, increased cell spreading, and a reduction in cell packing density (FIGS. 11B and C and data not shown). The cell lines were also analyzed by immunoblot analysis, evaluating levels of c-myc^T58AER, c-myc, and cdk2 (FIG. 11A).
# Alkaline phosphatase (AP) activity was used as a read-out to assess whether c-myc maintained hESCs were still pluripotent. 67% of colonies grown with 4OHT were AP positive in contrast to −4OHT cells where only 4% were positive after a 15 day period (FIG. 11D and data not shown). As in mouse ES cells, elevated c-myc activity caused significant cell death (data not shown).
# [5] = tested on: myc^Δ40-178ER cells; assay: AP activity of dominant negative myc^Δ40-178ER cells with 4OHT; type: cell-based, mouse; details: +LIF, 4OHT (25 nM), 6-day period, 92% at start
# Source text: While ES cell colonies with a typical domed-shape morphology could be maintained in the presence of LIF and in the absence of 4OHT over extended periods (>30 days), upon addition of 4OHT myc^Δ40-178ER cells changed morphology within several days, similar to that seen in spontaneously differentiating cells (data not shown). This coincided with down-regulation of specific transcripts associated with pluripotency such as Nanog and Oct4 together with the upregulation of early mesoderm (brachyury) and neuroectoderm (Sox1) transcripts (FIG. 10A). These trends were confirmed by AP activity assays in which the percentage of AP positive colonies declined from 92% to 45% over a 6-day period in the presence of 4OHT (FIG. 10B). […] This is consistent with the results showing that c-myc has a role in self-renewal and maintenance of pluripotency.
structure (smiles),measurement,setting,value
"CC/C(=C(\c1ccc(O)cc1)c1ccc(OCCN(C)C)cc1)c1ccccc1 [4OHT, 4-hydroxytomoxifen]",AP activity,[1],comparable between LIF maintained cells and those grown in the presence of 4OHT
same,AP activity (positive),"[2]; mycER cells grown in 4OHT, 6 days, entire LIF titration range 0-1×10^3 units per ml",> 90%
same,AP activity,"[2]; mycER cells, 14 days, −LIF, in the presence of 4OHT",significantly reduced
same,self-renewal,[3],did not promote self-renewal
same,highest concentration of drug that did not promote c-myc-dependent cell death (optimal),"[4]; 4OHT titration, c-myc^T58AER BG01 cell line",1 to 5 nM
same,colonies AP positive,"[4]; c-myc^T58AER hESCs grown with 4OHT, Matrigel, no MEF-CM and bFGF, 15 day period",67%
same,percentage of AP positive colonies,[5],45%
